Test results taken from patent publication US4327100A, “2-(Alkoxy-phenyl)-imidazo(4,5-b)pyridines and salts thereof” (Boehringer Ingelheim GmbH, priority 1979, dated 1982).

Key:
Type in all cases: in vivo
anesthetized cat = experiment: Effect on blood pressure and positive inotropic activity in the anesthetized cat; settings: 2.0 mg/kg i.v., average value, at least 3 cats
Experimental: 1. Determination of the effect on blood pressure and of the positive inotropic activity in the anesthetized cat
The test was performed on cats which were anesthetized with pentobarbital sodium (40 mg/kg i.p.). The animals breathed spontaneously. The arterial blood pressure was measured in the aorta abdominalis by a Statham pressure transducer (P 23 Dc). The positive inotropic effect was determined by measuring the pressure in the left ventricle by means of a catheter tip manometer (Millar PC 360 A). The contractility parameter (dp/dtmax) was registered by means of an analog differentiating circuit.
The test compound was injected into the vena femoralis. Physiological sodium chloride solution or polydiol 200 was used as solvent. Each substance was tested in at least 3 cats, dose 2 mg/kg i.v.

white mice = experiment: Acute toxicity in white mice after oral administration; settings: single oral dose 300 mg/kg, observation time 14 days
Experimental: (§1) The acute toxicity was determined in white mice after oral administration of a single dose of 300 mg/kg (observation time: 14 days).

[1] = as above; settings: mouse, in vivo, single oral dose 300 mg/kg, observation time 14 days
Experimental: as §1

| Structure (SMILES) | Change in blood pressure, second value of the printed pair (diastolic, not labelled in the patent) (anesthetized cat) [mmHg] | animals died (white mice) | LD50 at 336 h [1] [mg/kg] |
| --- | --- | --- | --- |
| COc1ccc(-c2nc3ncccc3[nH]2)c(OCC[S+]([O-])c2ccc(C)cc2)c1 (centres unmarked) [C, 2-{2-[2-(4-Methylphenylsulfinyl)-ethoxy]-4-methoxyphenyl}-imidazo[4,5-b]pyridine] | 45 | 0 out of 6 | > 300 |
| COc1ccc(-c2nc3ncccc3[nH]2)c(OCC[S+]([O-])c2ccccc2)c1 (centres unmarked) [A, 2-[2-(2-Phenylsulfinyl-ethoxy)-4-methoxyphenyl]imidazo[4,5-b]pyridine] | 20 |  |  |
| COc1ccc(-c2nc3ncccc3[nH]2)c(OCC[S+]([O-])c2cc(OC)c(OC)cc2C)c1 (centres unmarked) [D, 2-{2-[2-(2-Methyl-4,5-dimethoxyphenylsulfinyl)-ethoxy]-4-methoxyphenyl}-imidazo[4,5-b]pyridine] | 5 | 0 out of 6 | > 300 |
| COc1ccc(-c2nc3ncccc3[nH]2)c(OCC[S+]([O-])c2ccc([N+](=O)[O-])cc2)c1 (centres unmarked) [E, 2-{2-[2-(4-Nitrophenylsulfinyl)-ethoxy]-4-methoxyphenyl}-imidazo[4,5-b]pyridine] | 32 |  |  |
| COc1ccc(-c2nc3ncccc3[nH]2)c(OCC[S+]([O-])c2ccc(Cl)cc2)c1 (centres unmarked) [B, 2-{2-[2-(4-Chlorophenylsulfinyl)-ethoxy]-4-methoxyphenyl}-imidazo-[4,5-b]pyridine] | 42 | 0 out of 6 | > 300 |
